≈ marks a conversion by molar mass, not a printed value.
Legend:
Escherichia coli = assay: Antimicrobial activity against Escherichia coli MTCC 443 assessed as growth inhibition after 24 hr by turbidimetric method; type: functional; conditions: MTCC 443, 24 h
Pseudomonas aeruginosa = assay: Antimicrobial activity against Pseudomonas aeruginosa MTCC 1688 assessed as growth inhibition after 24 hr by turbidimetric method; type: functional; conditions: MTCC 1688, 24 h
Aspergillus niger = assay: Antimicrobial activity against Aspergillus niger MTCC 282 assessed as growth inhibition after 48 hr; type: functional; conditions: MTCC 282, 48 h
Staphylococcus aureus = assay: Antimicrobial activity against Staphylococcus aureus MTCC 96 assessed as growth inhibition after 24 hr by turbidimetric method; type: functional; conditions: MTCC 96, 24 h
Streptococcus pyogenes = assay: Antimicrobial activity against Streptococcus pyogenes MTCC 442 assessed as growth inhibition after 24 hr by turbidimetric method; type: functional; conditions: MTCC 442, 24 h
Candida albicans = assay: Antimicrobial activity against Candida albicans MTCC 227 assessed as growth inhibition after 48 hr; type: functional; conditions: MTCC 227, 48 h
Aspergillus clavatus = assay: Antimicrobial activity against Aspergillus clavatus MTCC 1323 assessed as growth inhibition after 48 hr; type: functional; conditions: MTCC 1323, 48 h
HepG2 = assay: Cytotoxicity against Homo sapiens (human) HepG2 cells by SRB assay; type: cell-based
HL-60 = assay: Cytotoxicity against Homo sapiens (human) HL60 cells by SRB assay; type: cell-based
A549 = assay: Cytotoxicity against Homo sapiens (human) A549 cells by SRB assay; type: cell-based

MIC (Escherichia coli) [µg/mL] | MIC (Pseudomonas aeruginosa) [µg/mL] | MIC (Aspergillus niger) [µg/mL] | MIC (Staphylococcus aureus) [µg/mL] | MIC (Streptococcus pyogenes) [µg/mL] | MIC (Candida albicans) [µg/mL] | MIC (Aspergillus clavatus) [µg/mL] | SMILES | Activity (HepG2) | Activity (HL-60) | Activity (A549)
100 (≈ 171 µM) | 250 (≈ 428 µM) | 250 (≈ 428 µM) | 250 (≈ 428 µM) | 100 (≈ 171 µM) | 250 (≈ 428 µM) | 250 (≈ 428 µM) | COc1ccc(C(=O)Nc2nc(C)c(C(=O)N/N=C3\S/C(=C\c4cccc(C)c4)C(=O)N3c3ccccc3)s2)cc1 | – | – | –
500 (≈ 851 µM) | 250 (≈ 425 µM) | 250 (≈ 425 µM) | 500 (≈ 851 µM) | 250 (≈ 425 µM) | 500 (≈ 851 µM) | 500 (≈ 851 µM) | COc1ccc(C(=O)Nc2nc(C)c(C(=O)N/N=C3\S/C(=C\c4ccc(F)cc4)C(=O)N3c3ccccc3)s2)cc1 | – | – | –
100 (≈ 171 µM) | 100 (≈ 171 µM) | 250 (≈ 427 µM) | 100 (≈ 171 µM) | 250 (≈ 427 µM) | 500 (≈ 854 µM) | 100 (≈ 171 µM) | COc1ccc(C(=O)Nc2nc(C)c(C(=O)N/N=C3\S/C(=C\c4cccc(O)c4)C(=O)N3c3ccccc3)s2)cc1 | – | – | –
> 1000 | 1000 (≈ 3260 µM) | > 1000 | > 1000 | 1000 (≈ 3260 µM) | 1000 (≈ 3260 µM) | 1000 (≈ 3260 µM) | COc1ccc(C(=O)Nc2nc(C)c(C(=O)NN)s2)cc1 | – | – | –
500 (≈ 813 µM) | 250 (≈ 407 µM) | 250 (≈ 407 µM) | 500 (≈ 813 µM) | 250 (≈ 407 µM) | 1000 (≈ 1630 µM) | 250 (≈ 407 µM) | COc1ccc(C(=O)Nc2nc(C)c(C(=O)N/N=C3\S/C(=C\c4ccccc4[N+](=O)[O-])C(=O)N3c3ccccc3)s2)cc1 | – | – | –
50 (≈ 83.4 µM) | 250 (≈ 417 µM) | 250 (≈ 417 µM) | 250 (≈ 417 µM) | 250 (≈ 417 µM) | 500 (≈ 834 µM) | 250 (≈ 417 µM) | COc1ccc(C(=O)Nc2nc(C)c(C(=O)N/N=C3\S/C(=C\c4cccc(OC)c4)C(=O)N3c3ccccc3)s2)cc1 | – | – | –
– | – | 100 (≈ 283 µM) | – | – | 500 (≈ 1420 µM) | 100 (≈ 283 µM) | COC1=CC(=O)C[C@@H](C)[C@]12Oc1c(Cl)c(OC)cc(OC)c1C2=O [GRISEOFULVIN] | – | – | –
25 (≈ 42.8 µM) | 25 (≈ 42.8 µM) | 100 (≈ 171 µM) | 250 (≈ 428 µM) | 100 (≈ 171 µM) | 100 (≈ 171 µM) | 100 (≈ 171 µM) | COc1ccc(C(=O)Nc2nc(C)c(C(=O)N/N=C3\S/C(=C\c4ccccc4C)C(=O)N3c3ccccc3)s2)cc1 | Non-toxic | Non-toxic | Non-toxic
250 (≈ 519 µM) | 500 (≈ 1040 µM) | 1000 (≈ 2080 µM) | 500 (≈ 1040 µM) | 500 (≈ 1040 µM) | 1000 (≈ 2080 µM) | 250 (≈ 519 µM) | COc1ccc(C(=O)Nc2nc(C)c(C(=O)N/N=C3\SCC(=O)N3c3ccccc3)s2)cc1 | – | – | –
25 (≈ 41.7 µM) | 50 (≈ 83.4 µM) | 100 (≈ 167 µM) | 100 (≈ 167 µM) | 50 (≈ 83.4 µM) | 50 (≈ 83.4 µM) | 50 (≈ 83.4 µM) | COc1ccc(/C=C2\S/C(=N\NC(=O)c3sc(NC(=O)c4ccc(OC)cc4)nc3C)N(c3ccccc3)C2=O)cc1 | Non-toxic | Non-toxic | Non-toxic
500 (≈ 1130 µM) | 500 (≈ 1130 µM) | 1000 (≈ 2260 µM) | 500 (≈ 1130 µM) | 500 (≈ 1130 µM) | 1000 (≈ 2260 µM) | > 1000 | COc1ccc(C(=O)Nc2nc(C)c(C(=O)NNC(=S)Nc3ccccc3)s2)cc1 | – | – | –
50 (≈ 85.4 µM) | 250 (≈ 427 µM) | 100 (≈ 171 µM) | 50 (≈ 85.4 µM) | 250 (≈ 427 µM) | 250 (≈ 427 µM) | 250 (≈ 427 µM) | COc1ccc(C(=O)Nc2nc(C)c(C(=O)N/N=C3\S/C(=C\c4ccc(O)cc4)C(=O)N3c3ccccc3)s2)cc1 | Non-toxic | Non-toxic | Non-toxic
250 (≈ 439 µM) | 500 (≈ 878 µM) | 500 (≈ 878 µM) | 500 (≈ 878 µM) | 250 (≈ 439 µM) | 500 (≈ 878 µM) | 500 (≈ 878 µM) | COc1ccc(C(=O)Nc2nc(C)c(C(=O)N/N=C3\S/C(=C\c4ccccc4)C(=O)N3c3ccccc3)s2)cc1 | – | – | –
12.5 (≈ 21.4 µM) | 50 (≈ 85.7 µM) | 25 (≈ 42.8 µM) | 50 (≈ 85.7 µM) | 50 (≈ 85.7 µM) | 100 (≈ 171 µM) | 25 (≈ 42.8 µM) | COc1ccc(C(=O)Nc2nc(C)c(C(=O)N/N=C3\S/C(=C\c4ccc(C)cc4)C(=O)N3c3ccccc3)s2)cc1 | Non-toxic | Non-toxic | Non-toxic
250 (≈ 407 µM) | 500 (≈ 813 µM) | 500 (≈ 813 µM) | 500 (≈ 813 µM) | 500 (≈ 813 µM) | 500 (≈ 813 µM) | 500 (≈ 813 µM) | COc1ccc(C(=O)Nc2nc(C)c(C(=O)N/N=C3\S/C(=C\c4ccc([N+](=O)[O-])cc4)C(=O)N3c3ccccc3)s2)cc1 | – | – | –
500 (≈ 828 µM) | 500 (≈ 828 µM) | 500 (≈ 828 µM) | 250 (≈ 414 µM) | 500 (≈ 828 µM) | 500 (≈ 828 µM) | 500 (≈ 828 µM) | COc1ccc(C(=O)Nc2nc(C)c(C(=O)N/N=C3\S/C(=C\c4ccc(Cl)cc4)C(=O)N3c3ccccc3)s2)cc1 | – | – | –
100 (≈ 171 µM) | 250 (≈ 427 µM) | 250 (≈ 427 µM) | 250 (≈ 427 µM) | 100 (≈ 171 µM) | 500 (≈ 854 µM) | 250 (≈ 427 µM) | COc1ccc(C(=O)Nc2nc(C)c(C(=O)N/N=C3\S/C(=C\c4ccccc4O)C(=O)N3c3ccccc3)s2)cc1 | – | – | –
250 (≈ 414 µM) | 250 (≈ 414 µM) | 250 (≈ 414 µM) | 250 (≈ 414 µM) | 500 (≈ 828 µM) | 500 (≈ 828 µM) | 250 (≈ 414 µM) | COc1ccc(C(=O)Nc2nc(C)c(C(=O)N/N=C3\S/C(=C\c4ccccc4Cl)C(=O)N3c3ccccc3)s2)cc1 | – | – | –
250 (≈ 417 µM) | 100 (≈ 167 µM) | 100 (≈ 167 µM) | 100 (≈ 167 µM) | 100 (≈ 167 µM) | 100 (≈ 167 µM) | 100 (≈ 167 µM) | COc1ccc(C(=O)Nc2nc(C)c(C(=O)N/N=C3\S/C(=C\c4ccccc4OC)C(=O)N3c3ccccc3)s2)cc1 | Non-toxic | Non-toxic | Non-toxic

SMILES | MIC (Escherichia coli) [µg/mL] | MIC (Pseudomonas aeruginosa) [µg/mL] | MIC (Aspergillus niger) [µg/mL] | MIC (Staphylococcus aureus) [µg/mL] | MIC (Streptococcus pyogenes) [µg/mL] | MIC (Candida albicans) [µg/mL] | MIC (Aspergillus clavatus) [µg/mL] | Activity (HepG2) | Activity (HL-60) | Activity (A549)
O=C(O)c1cn(C2CC2)c2cc(N3CCNCC3)c(F)cc2c1=O [CIPROFLOXACIN] | 25 (≈ 75.4 µM) | – | – | 50 (≈ 151 µM) | 50 (≈ 151 µM) | – | – | – | – | –

From ChEMBL document CHEMBL3045816, “Synthesis and antimicrobial screening of 5-(benzylidene)-3-phenylthiazolidin-4-one derivatives incorporating thiazole ring” (Med Chem Res, 2013)
